Patent US20060116325A1, “Methods and compositions for inhibiting hiv-coreceptor interactions” (priority 2001, published 2006)

Assays:
[1] = molecular target: T1, CXCR4 (Homo sapiens, UniProt P61073); assay: Competition with 125I-SDF-1α binding to CEMx174 cells; set-up: host or cells: CEMx174 (174xCEM); conditions: room temperature, 0.1% sodium azide, FIG. 7B, 7C
Experimental: FIGS. 7A through 7C depicts the inhibition of chemokine receptor ligand binding by peptide pre-treatment. FIG. 7A. Effect of pre-treatment with peptides 15K and 15D on the binding of MIP-1β to SupT1/CCR5 cells; FIG. 7B. Effect of pre-treatment with peptides 15K and 1SD on the binding of SDF-1α to CEMx174 cells; and FIG. 7C. Effect of pre-treatment with 15K and control peptide 15GIG on the binding of SDF-1α to CEmx174 cells. Binding studies were performed as described in Materials and Methods.
Binding assays were performed with HEK-CCR5 or HEK CXCR4 in triplicate by adding unlabeled competitor (anti-coreceptor binding peptide or control chemokine) and radiolabeled chemokine, 0.2 ng/ml (^125I-MIP-1β or SDF-1α, specific activity 2000 Ci/mmol, NEN Life Science Products) to a cell suspension (4×10^5 cells in 200 μl) in RPMI 1640 supplemented with 1% bovine serum albumin and 25 mM HEPES pH 8.0 (binding medium). Cells were then incubated at 22° C. for 40 min with continuous rotation. After incubation cells were transferred to the tubes containing 800 μl of 10% sucrose in PBS and harvested by centrifugation. The supernatant was aspirated and the cell-associated radioactivity was measured using a 1272 Wallac gamma counter. Binding assays were performed with the 174xCEM and Sup-T1 cells expressing CCR5 in duplicates by adding unlabeled competitor (peptide or control chemokine) and radiolabeled chemokine, 0.2 ng/ml (^125I-MIP-1β or ^125I-SDF-1α, specific activity 2000 Ci/mmol, NEN life Science Products) to 300 μl cell suspension (4×10^6 cells/ml) in RPMI 1640 supplemented with 1% bovine serum albumin, 0.1% sodium azide and 25 mM HEPES pH 8.0 (binding medium). Cells were then incubated at 22° C. for 30 min with continuous rotation. After incubation cells were transferred to the tubes containing 800 μl of 10% sucrose in PBS and harvested by centrifugation, the supematant was aspirated and the cell-associated radioactivity was measured using a 1272 Wallac gamma counter. The data were analyzed by nonlinear regression using the computer program GraphPad Prizm 3.0. […]

[2] = molecular target: T1, CXCR4; assay: Binding of anti-CXCR4 antibody 12G5 to CEMx174 cells (flow cytometry); set-up: host or cells: CEMx174 (174xCEM); conditions: for inhibition of 12G5 antibody binding to CXCR4: CEMx174 cells, preincubation 60 min 22° C., FIG. 5
Experimental: FIG. 5A. Dose dependent effect of peptide 15K in comparison with SDF-1α. FIG. 5B. The comparison of the effects of 15K and 15D. FIG. 5C. The comparison of the effects of 15K and 15KS. Cells were preincubated at 22° C. with peptides at designated concentrations of SDF-1α for 60 min. Then cells were incubated with FITC-labeled anti-human CXCR4 monoclonal antibodies 12G5 for 40 min at 22° C. and washed with FACS buffer prior to flow cytometry.
CEMx174 cells were pelleted and resuspended at 10^6 cells/ml in PBS containing 1% BSA and 0.1% sodium azide (FACS buffer). Cells were then preincubated with designated concentrations of peptides or SDF-1-α (1 μg/ml) at 22° C. for 60 min. FITC-labeled anti-human CXCR4 antibody (clone 12G5, BD PharMingen, San Diego, Calif.) was added to the cells per the manufactures instructions and further incubated at 22° C. for 40 minutes. Cells were extensively washed with FACS buffer and analyzed using a FACS Calibur flowcytometer (Becton Dickinson). HEK/CCR5 cells were suspended in Dulbecco's PBS containing 1% FCS and 0.05% NaN3 (10^4 cells in 100 μl) and incubated with or without 5 μg of MIP-1β (PeproTech, Rocky Hill, N.J.), 0.1 mM peptide 15D or 15K for 45 min at 22° C. Cells were then treated with FITC-conjugated anti-human CCR5 antibody (2D7; BD PharMingen, San Diego, Calif.), and incubated for 30 min at 22° C. Cells were washed twice, and analyzed using a FACScan flow cytometer (Becton Dickinson Immunocytometry Systems, San Jose, Calif.).
To determine if peptides 15D and 15K interact directly with chemokine receptors the effect of these and control peptides on the binding of anti-chemokine receptor antibodies to CXCR4 and CCR5 was studied. The monoclonal antibody 12G5 recognizes a conformational extracellular epitope on CXCR4. This antibody blocks the infectivity of some X4 strains of HIV-1 and HIV-2 (Endres et al., Cell 87:745-756, 1996; Hoxie et al., J. Reprod. Immunol. 41:197-211(1998); McKnight et al., J. Virol. 74:1692-1696(1997), 19, 26). […] Further, the binding of 12G5 to CXCR4 receptor-expressing cells is prevented by anti-HIV compounds. […] 73:2752-2761, 1999. To determine the importance of the particular amino acid sequence of the inhibitory activity of the peptides. The effects of peptide 15K and the corresponding scrambled peptide 15KS on binding of 12G5 to CXCR4 was compared. […] Apparently there is a direct correlation between the ability of 15K to inhibit the anti-CXCR4 antibody binding and its ability to inhibit HIV-1 infectivity since the scrambled peptide 15KS with the same amino acid comparison has reduced ability to manifest both these activities.

T1 sequence (P61073 whole entry): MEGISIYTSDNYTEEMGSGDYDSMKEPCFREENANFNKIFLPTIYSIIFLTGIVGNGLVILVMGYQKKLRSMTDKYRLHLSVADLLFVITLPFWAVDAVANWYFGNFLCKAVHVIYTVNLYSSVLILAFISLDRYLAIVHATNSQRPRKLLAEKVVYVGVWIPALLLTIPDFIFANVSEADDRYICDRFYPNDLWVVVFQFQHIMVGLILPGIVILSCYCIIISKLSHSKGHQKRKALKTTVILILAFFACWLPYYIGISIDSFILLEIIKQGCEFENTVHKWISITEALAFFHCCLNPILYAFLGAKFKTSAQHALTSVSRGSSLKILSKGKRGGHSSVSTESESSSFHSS

| Substance | inhibition of SDF-1α binding to CXCR4 [1] | inhibition of 12G5 antibody binding to CXCR4 [2] | inhibition of 12G5 antibody binding compared with SDF-1α ([2]; peptide at 50 μg/ml versus SDF-1α, FIG. 5A) |
| --- | --- | --- | --- |
| I R K A H C N I S R A D W N D [Peptide 15D] | competitively inhibited chemokine binding | less effective | – |
| IRKAHCNISRAKWND [Peptide 15K] | competitively inhibited chemokine binding | inhibited the binding of the 12G5 antibody to CXCR4 in a dose-dependent manner | approached the efficacy of SDF-1α |
